Data taken from PubChem BioAssay AID2060610 (Molecular Pharmacology Branch, DTP, NCI, 2025).
Where “and” joins values, the source holds several entries; their conditions need not be identical. Equal values may be shown once. Each block holds one compound with its values, some of them ahead of it.

System: 616215-338-R-J1-PDC complex spheroids, viability % test/control
Experiment: Anticancer human tumor 616215-338-R-J1-PDC patient-derived colon adenocarcinoma cell line growth inhibition [CLK]
Conditions: for viability, T/C: stronger effect = lower value
Excerpt: A high-throughput screen of multi-cell type tumor spheroids was designed to identify active combinations of […] and targeted small molecules. Complex spheroids include a stromal component modeled by human endothelial cells (HUVEC) and fibroblasts modeled by human mesenchymal stem cells (MSCs). The concentration ranges selected for each drug and investigational agent were based upon clinically achievable concentrations if the clinical Cmax of the agent was known.
Compounds. The drugs and investigational agents: cirtuvivint (SM08502; NSC835563), CC-671 (NSC850746), vemurafenib (NSC761431), tapotoclax (NSC804041), sotorasib (NSC818433), adagrasib (NSC831453), MRTX-1133 (NSC836407), BAY2416964 (NSC825713), copanlisib (NSC816437), inavolisib (NSC800729), abemaciclib (NSC768073), osimertinib (NSC779217), entinostat (NSC756642), eltanexor (KPT-8602, NSC794443), venetoclax (NSC766270), ceralasertib (NSC777638), bortezomib (NSC756655), olaparib (NSC753686), talazoparib (NSC767125), alisertib (NSC759677), peposertib (NSC802822), gemcitabine (NSC613327), 5-fluorouracil (NSC19893), SN-38 (NSC673596), oxaliplatin (NSC266046), paclitaxel (NSC125973), and doxorubicin (NSC123127), were obtained from the National Cancer Institute (NCI) Developmental Therapeutics Program Chemical Repository. The FDA-approved anticancer drug set is available from the Developmental Therapeutics Program at https://dtp.cancer.gov/organization/dscb/obtaining/available plates.htm. […] The stock solutions were prepared in dimethyl sulfoxide (DMSO, Sigma-Aldrich, St. Louis, MO, cat. D2650), except for the platinum complexes which were prepared in saline (Quality Biological, Gaithersburg, MD, cat. 114-055-101), at 800-fold the tested concentration and stored at -70 degrees C prior to their use. All drugs and investigational agents were tested over a range starting from a high concentration at or near the clinical Cmax and decreasing in half-log increments. If the clinical Cmax for an agent had not been determined, the highest concentration tested was 10 microM.
Cell Culture. All cells were maintained in an incubator at 37 degrees C and 5% CO2 with 95% humidity. The PDC lines were cultured according to standard operating procedures established by the NCI PDMR. Briefly, all PDCs were thawed and cultured in Matrigel-coated flasks prepared with a working solution of 1X Ham's F-12 nutrient mix, without supplementation (Invitrogen, Waltham, MA, cat. 11765054), 100 U/mL penicillin-streptomycin (Invitrogen, cat. 15140122), and 2.5% Matrigel (Corning Inc., Corning, NY, cat. 354248) for the first three passages. The 947758-054-R-J2-PDC line was cultured in 6B/Colon 1A media, which includes advanced DMEM/F-12 (Thermo Fisher Scientific, cat. 12634028), 10 mM HEPES (Thermo Fisher Scientific, cat. 15630080), 1X GlutaMAX supplement (Thermo Fisher Scientific, cat. 35050061), 0.1 mg/mL primocin (InvivoGen, cat. ant-pm-2), 10% defined fetal bovine serum, heat inactivated (HyClone Laboratories Inc., cat. SH30070.03HI), 1.25 mM N-Acetyl-L-cysteine (Sigma-Aldrich, cat. A9165), 10 mM nicotinamide (Sigma-Aldrich, cat. N0636), 1X B-27 supplement (Thermo Fisher Scientific, cat. 17504044), 1X N-2 supplement (Thermo Fisher Scientific, cat. 17502048), and 10 microM Y-27632 dihydrochloride (Tocris Bioscience, cat. 1254). The 876862-298-R-J1-PDC was cultured in 6E media, which includes all 6B/Colon 1A media components plus 50% L-WRN conditioned media (ATCC, cat. CRL-3276), 50 ng/mL recombinant human EGF recombinant protein (hEGF; Thermo Fisher Scientific, cat. PHG0311), 10 ng/mL recombinant human fibroblast growth factor 10 (hGFG-10; PeproTech, cat. 100-26), 1 ng/mL recombinant human fibroblast growth factor 2 (hFGF-2; PeproTech, cat. 100-18B), and 1 µM prostaglandin E2 (PGE2; Tocris, cat. 2296). The 227483-062-R1-J1-PDC line was cultured in Panc media, containing all 6E components except hFGF-2, with the addition of 500 nM SB-431542 (Selleckchem, cat. S1067) and 10 nM gastrin (Tocris, cat. 3006). […]
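Also: spheroids exposed to agents for 7 days.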
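For viability, T/C in this document: 100% = DMSO vehicle wells.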

IC50 (curve of compound): < 31.6 nM
Compound: Nc1ccn(C2OC(CO)C(O)C2(F)F)c(=O)n1 (centres undefined)
viability, T/C (compound 0.0316 µM): 13.9% and 20.9% | viability, T/C (compound 0.1 µM): 11.6% and 15.4% | viability, T/C (compound 0.316 µM): 9.93% and 15.4% | viability, T/C (compound 1 µM): 13.5% and 17% | viability, T/C (compound 3.16 µM): 9.75% and 16.1% | viability, T/C (compound 10 µM): 11.3% and 14.7%

IC50 (curve of first compound, second compound 0.0316 µM): > 10000 nM | IC50 (curve of first compound, second compound 0.1 µM): 487 nM | IC50 (curve of first compound, second compound 0.316 µM): < 31.6 nM | IC50 (curve of first compound, second compound 1 µM): < 31.6 nM | IC50 (curve of first compound, second compound 3.16 µM): < 31.6 nM | IC50 (curve of first compound, second compound 10 µM): < 31.6 nM
Compound: CC(CO)NC(=O)c1cc(-c2ccc(Cl)cc2)nn(-c2cnn(C)c2)c1=O (centres undefined) + CNC(=O)c1ccc(Nc2nc(OC3CCCC3)c3c(-c4ccc5nc(C)oc5c4)c[nH]c3n2)c(OC)c1
viability, T/C (second compound 0.0316 µM, first compound 0.0316 µM): 85.1% | viability, T/C (second compound 0.0316 µM, first compound 0.1 µM): 89% | viability, T/C (second compound 0.0316 µM, first compound 0.316 µM): 89.2% | viability, T/C (second compound 0.0316 µM, first compound 1 µM): 92.8% | viability, T/C (second compound 0.0316 µM, first compound 3.16 µM): 91.1% | viability, T/C (second compound 0.0316 µM, first compound 10 µM): 97.5% | viability, T/C (second compound 0.1 µM, first compound 0.0316 µM): 58.9% | viability, T/C (second compound 0.1 µM, first compound 0.1 µM): 57.9% | viability, T/C (second compound 0.1 µM, first compound 0.316 µM): 48.7% | viability, T/C (second compound 0.1 µM, first compound 1 µM): 45.9% | viability, T/C (second compound 0.1 µM, first compound 3.16 µM): 50.6% | viability, T/C (second compound 0.1 µM, first compound 10 µM): 43.4% | viability, T/C (second compound 0.316 µM, first compound 0.0316 µM): 36.4% | viability, T/C (second compound 0.316 µM, first compound 0.1 µM): 45.8% | viability, T/C (second compound 0.316 µM, first compound 0.316 µM): 40.2% | viability, T/C (second compound 0.316 µM, first compound 1 µM): 38.6% | viability, T/C (second compound 0.316 µM, first compound 3.16 µM): 48% | viability, T/C (second compound 0.316 µM, first compound 10 µM): 40.2% | viability, T/C (second compound 1 µM, first compound 0.0316 µM): 43.5% | viability, T/C (second compound 1 µM, first compound 0.1 µM): 46% | viability, T/C (second compound 1 µM, first compound 0.316 µM): 46.3% | viability, T/C (second compound 1 µM, first compound 1 µM): 41.8% | viability, T/C (second compound 1 µM, first compound 3.16 µM): 44.2% | viability, T/C (second compound 1 µM, first compound 10 µM): 35.3% | viability, T/C (second compound 3.16 µM, first compound 0.0316 µM): 45% | viability, T/C (second compound 3.16 µM, first compound 0.1 µM): 45.4% | viability, T/C (second compound 3.16 µM, first compound 0.316 µM): 36.2% | viability, T/C (second compound 3.16 µM, first compound 1 µM): 38.4% | viability, T/C (second compound 3.16 µM, first compound 3.16 µM): 31.7% | viability, T/C (second compound 3.16 µM, first compound 10 µM): 30.3% | viability, T/C (second compound 10 µM, first compound 0.0316 µM): 43.4% | viability, T/C (second compound 10 µM, first compound 0.1 µM): 43.4% | viability, T/C (second compound 10 µM, first compound 0.316 µM): 34.3% | viability, T/C (second compound 10 µM, first compound 1 µM): 30.3% | viability, T/C (second compound 10 µM, first compound 3.16 µM): 34.3% | viability, T/C (second compound 10 µM, first compound 10 µM): 39.5%
